Broadly, the Ki is a measure of affinity in units of concentration, obtained from inhibition or displacement. The term CLint scaled denotes a measure of how fast metabolising enzymes remove a compound, apart from limits set by blood flow. Low values mean slow turnover, high ones rapid turnover. What is called half-life is the time in which the quantity being followed falls by half. A higher half-life goes with slow loss.

Series [1] has as its target serotonin transporter (SERT) (Rattus norvegicus (Rat), UniProt P31652). The experiment in a line: [3H]5-HT uptake assay, synaptosomal preparation. Type of series: biochemical. As to the method: (§1) [^3H]DA and [^3H]5-HT uptake into striatal synaptosomes was determined to evaluate compound inhibition of the dopamine transporter (DAT) and the serotonin transporter (SERT), respectively.

Series [2] has as its target dopamine transporter (DAT) (Rattus norvegicus (Rat), UniProt P23977). The series is described as follows: [3H]DA uptake assay, synaptosomal preparation. The format is biochemical. As to the method:
as §1

In a further series the test system is rats. The experiment in a line: METH-stimulated locomotor activity in rats. The format is in vivo, rat. The settings on record: s.c.
For series [3], the target named is T1, VMAT2 (Rattus norvegicus (Rat), UniProt Q01827). The experiment in a line: [3H]Dopamine ([3H]DA) uptake assay, vesicular preparation. The format is biochemical.
For series [4], the target named is hERG channel (selectivity at VMAT2 over hERG) (Homo sapiens (Human), UniProt Q12809). The experiment in a line: [3H]Dofetilide binding assay, HEK-293 cell membrane preparation. The settings on record: human, pH 7.4.
The nature of a further series: in vitro. The conditions noted are these: female, Sprague-Dawley, rat, microsomes, pH 7.4, Microsomal stability assays: Clearance.
The next series concerns the target hERG channel (Homo sapiens (Human), UniProt Q12809). The series is described as follows: [3H]Dofetilide binding assay, HEK-293 cell membrane preparation. The conditions noted are these: [3H]dofetilide, HEK-293 cell membranes; read-out: hERG Binding: Mean Ki ± Standard Deviation.
The nature of series [5]: Microsomal stability assay, rat liver microsomes. The settings on record: female, Sprague-Dawley, rat, liver microsomes, pH 7.4, Microsomal stability assays: Half-life.
The subject of a further series is rat striatal slices. The conditions noted are these: cited from earlier work.
For series [6] the following is noted: in vivo; cited from earlier work.
The target in series [7] is T1, VMAT2. The conditions noted are these: rat brain vesicles; read-out: inhibition of [3H]DA uptake into rat brain vesicles via VMAT2 (Ki); cited from earlier work.
The mark [8] stands for this setting: [3H]DA uptake (Ki) VMAT2, rat striatal synaptic vesicles.
Setting [9] is: [3H]DA uptake, rat, read-out: VMAT2 (rat) Inhibition: Mean Ki ± Standard Deviation.

Where two headings read alike, the source gives them in different places.

Chain of hERG channel (Q12809 whole entry): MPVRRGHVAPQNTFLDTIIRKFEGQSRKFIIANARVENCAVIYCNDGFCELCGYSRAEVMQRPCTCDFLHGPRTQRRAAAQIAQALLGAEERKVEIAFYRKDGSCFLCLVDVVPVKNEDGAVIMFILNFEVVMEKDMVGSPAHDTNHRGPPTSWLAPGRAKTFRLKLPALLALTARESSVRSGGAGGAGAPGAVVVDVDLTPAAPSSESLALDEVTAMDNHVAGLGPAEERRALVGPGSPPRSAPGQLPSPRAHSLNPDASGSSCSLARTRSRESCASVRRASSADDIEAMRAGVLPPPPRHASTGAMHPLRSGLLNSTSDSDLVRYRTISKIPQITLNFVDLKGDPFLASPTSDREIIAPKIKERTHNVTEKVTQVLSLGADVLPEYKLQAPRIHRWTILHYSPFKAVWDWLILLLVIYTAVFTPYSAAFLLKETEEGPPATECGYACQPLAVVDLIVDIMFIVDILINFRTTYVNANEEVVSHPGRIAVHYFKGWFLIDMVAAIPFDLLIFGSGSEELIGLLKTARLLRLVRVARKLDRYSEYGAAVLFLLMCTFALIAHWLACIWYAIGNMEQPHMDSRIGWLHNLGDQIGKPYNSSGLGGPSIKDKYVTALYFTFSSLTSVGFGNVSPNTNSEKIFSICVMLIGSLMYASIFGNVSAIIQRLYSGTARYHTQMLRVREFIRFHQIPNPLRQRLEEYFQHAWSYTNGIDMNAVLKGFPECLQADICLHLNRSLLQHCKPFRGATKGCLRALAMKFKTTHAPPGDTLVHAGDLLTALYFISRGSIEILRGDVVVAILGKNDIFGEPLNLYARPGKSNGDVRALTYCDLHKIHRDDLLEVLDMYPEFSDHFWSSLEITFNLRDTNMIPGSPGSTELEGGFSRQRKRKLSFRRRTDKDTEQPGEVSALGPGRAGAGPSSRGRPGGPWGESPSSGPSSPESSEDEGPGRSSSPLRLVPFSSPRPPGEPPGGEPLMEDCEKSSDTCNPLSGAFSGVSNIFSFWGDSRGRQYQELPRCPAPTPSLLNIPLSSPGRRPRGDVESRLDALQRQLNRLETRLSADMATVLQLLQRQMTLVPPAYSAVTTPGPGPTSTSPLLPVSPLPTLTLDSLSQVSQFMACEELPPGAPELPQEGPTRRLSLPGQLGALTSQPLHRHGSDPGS
Chain of hERG channel (selectivity at VMAT2 over hERG) (Q12809 whole entry): as above

As to `COc1ccc(CCCN[C@H](C)Cc2ccccc2)cc1.Cl` [Compound 9], in series [1], the “selectivity at VMAT2 over SERT” value was greater than 30 fold. In addition, the “selectivity at VMAT2 over DAT” value in [2] is on record as greater than 30 fold. In the series on rats (3 mg/kg), the METH-stimulated locomotor activity entry is reported as “significant reduction”. For the same compound, the inhibition constant (Ki) is 0.00871 ± 0.00365 µM at VMAT2 [3] (Ki value at VMAT2, text value) and 0.0087 ± 0.0065 µM at VMAT2 [3] (setting [8]). The selectivity ratio at 1 hr in series [4] is greater than 30.

As for `COc1ccc(CCCN[C@@H](C)Cc2ccccc2)cc1.Cl` [Compound 10], the “selectivity at VMAT2 over SERT” value in series [1] is greater than 30 fold. The “selectivity at VMAT2 over DAT” value in series [2] is given as greater than 30 fold. Besides, the METH-stimulated locomotor activity result with rats (17 mg/kg) is listed as “significant reduction”. In addition, the Ki at VMAT2 [3] (Ki value at VMAT2, text value) came out at 0.0255 ± 0.00357 µM; on VMAT2 [3] (setting [8]) it was 0.026 ± 0.0036 µM. The selectivity ratio at 1 hr in series [4] is greater than 30.

As for `Nc1ccc(CC(CF)NCCCc2ccc(F)cc2)cc1` (centres unmarked) [Compound 79, [N-3-(4-fluorophenyl)-propan-1-yl]-3-(4-aminophenyl)-1-fluoro-2-propylamine], the Ki on VMAT2 [3] (setting [9]) came to 0.0198 ± 0.00929 µM; on hERG channel, 3.44 ± 0.983 µM. Further, the CLint scaled at 0.08 µM in “in vitro” was 21.1 mL/min/kg. The same compound showed a half-life at 0.08 µM in [5] of 132 min.

For `Fc1ccc(CCCNC(Cc2ccc(F)cc2)C(F)F)cc1` (centres unmarked) [Compound 81], the Ki at VMAT2 [3] (setting [9]) was found to be 0.386 ± 0.194 µM. In “in vitro”, this compound yielded a CLint scaled at 0.08 µM of 83.2 mL/min/kg. This compound showed a half-life at 0.08 µM in series [5] of 36 min.

For the compound `FCC(Cc1ccc(-c2cccnc2)cc1)NCCCc1ccc(F)cc1` (centres unmarked) [Compound 83], the Ki amounted to 0.0277 ± 0.0139 µM on VMAT2 [3] (setting [9]) and 6.75 ± 3.62 µM on hERG channel. This compound yielded a CLint scaled at 0.08 µM in “in vitro” of 113 mL/min/kg. In series [5], this compound had a half-life at 0.08 µM of 24 min.

In the case of `FCC(Cc1ccc(F)cc1)NCCCc1ccncc1` (centres unmarked) [Compound 142], the inhibition constant Ki on VMAT2 [3] (setting [9]) turned out to be 0.117 ± 0.0187 µM. For the same compound, the CLint scaled at 0.08 µM in the series “in vitro” stood at 38.3 mL/min/kg. Moreover, in series [5], the half-life at 0.08 µM is 30 min.

Turning to `FCC(Cc1ccc(F)cc1)NCCCc1ccnc2ccccc12` (centres unmarked) [Compound 148], the values for the Ki on VMAT2 [3] (setting [9]) and at hERG channel were 0.0703 ± 0.013 µM and 4.7 ± 0.373 µM, respectively. Further, in “in vitro”, the CLint scaled at 0.08 µM was greater than 400 mL/min/kg. This compound also showed a half-life at 0.08 µM in series [5] of less than 6 min.

Consider `OCC(Cc1ccc(F)cc1)NCCCc1ccc(Br)cc1` (centres unmarked) [Compound 155], for which the CLint scaled at 0.08 µM in “in vitro” was greater than 450 mL/min/kg. The same compound yielded a half-life at 0.08 µM in series [5] of less than 6 min.

Regarding `CN1[C@@H](CCc2ccccc2)CCC[C@H]1CCc1ccccc1` [Lobelane], the “METH-evoked DA overflow” value with rat striatal slices is “decreases”. Further, the METH self-administration result in series [6] was “decreases”.

For `c1ccc(CC[C@H]2CCC[C@@H](CCc3ccccc3)N2)cc1` [Nor-Lobelane], the Ki on VMAT2 [7] is 0.044 µM.

The values above are taken from patent US11999676B2, “Vesicular monoamine transporter-2 ligands and their use in the treatment of psychostimulant abuse” (priority 2016, dated 2024).
